According to article PMC6934184, “Selective DNA-PKcs inhibition extends the therapeutic index of localized radiotherapy and chemotherapy” (The Journal of Clinical Investigation, 2019):

Target: T1, RET V804M (Homo sapiens, UniProt P07949, V804M)
T1 construct: purchased Thermo Fisher Scientific (Life Technologies) SelectScreen
Assay: SelectScreen LanthaScreen
Format: binding
Conditions: read-out: % displacement
Outline: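 Percent values come from Thermo SelectScreen profiling of NU5455, combining activity and binding assays. CSF1R was run in Z'LYTE format at Km app ATP, and CAMK1 in Adapta format with ATP listed at 10.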

T1 sequence (P07949 29-1114 V804M): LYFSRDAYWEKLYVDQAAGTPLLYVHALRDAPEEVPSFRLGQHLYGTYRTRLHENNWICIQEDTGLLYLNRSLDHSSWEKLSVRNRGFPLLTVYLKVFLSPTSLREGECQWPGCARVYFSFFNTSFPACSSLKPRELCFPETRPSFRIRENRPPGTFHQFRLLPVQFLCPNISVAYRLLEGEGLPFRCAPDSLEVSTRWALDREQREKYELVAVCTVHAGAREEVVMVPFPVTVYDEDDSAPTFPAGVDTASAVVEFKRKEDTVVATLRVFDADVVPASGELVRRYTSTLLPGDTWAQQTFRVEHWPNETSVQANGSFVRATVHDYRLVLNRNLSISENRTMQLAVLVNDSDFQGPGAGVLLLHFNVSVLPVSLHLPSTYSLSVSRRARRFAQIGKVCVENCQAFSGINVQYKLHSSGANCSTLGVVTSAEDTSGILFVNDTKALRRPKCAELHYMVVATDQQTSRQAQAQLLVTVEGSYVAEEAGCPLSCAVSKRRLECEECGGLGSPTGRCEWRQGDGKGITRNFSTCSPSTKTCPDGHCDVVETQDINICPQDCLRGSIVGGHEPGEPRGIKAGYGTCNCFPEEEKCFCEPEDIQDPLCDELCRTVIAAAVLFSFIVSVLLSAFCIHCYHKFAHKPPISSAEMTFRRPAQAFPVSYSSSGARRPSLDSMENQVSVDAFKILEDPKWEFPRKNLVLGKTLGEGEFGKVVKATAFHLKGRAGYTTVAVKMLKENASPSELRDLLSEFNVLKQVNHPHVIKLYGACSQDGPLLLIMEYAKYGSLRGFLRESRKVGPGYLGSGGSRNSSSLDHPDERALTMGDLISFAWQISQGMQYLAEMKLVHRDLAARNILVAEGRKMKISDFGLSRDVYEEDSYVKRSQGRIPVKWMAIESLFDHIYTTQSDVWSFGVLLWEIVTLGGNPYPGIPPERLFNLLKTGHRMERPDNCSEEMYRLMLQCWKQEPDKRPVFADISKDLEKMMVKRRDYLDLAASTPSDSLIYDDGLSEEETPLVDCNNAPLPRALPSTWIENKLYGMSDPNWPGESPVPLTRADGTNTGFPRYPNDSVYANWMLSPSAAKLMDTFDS

CN(C(=O)CN1CCOCC1)c1ccc2sc3c(-c4cccc5c(=O)cc(N6CC7CCC(C6)O7)oc45)cccc3c2c1 [NU5455] was tested, and the inhibition at 1 µM was 11.3%.
